# Source: publication PMC8778678 (Viruses, 2022)
# “Also recorded” adds a separate entry of the source. Like-named read-outs stand apart in the source and are kept apart here.
# Columns and labels:
# SARS-CoV-2 = tested on: SARS-CoV-2; set-up: method as in ref 28 = [28]; details: Vero E6 system; read-out: EC50, SARS-CoV-2 cytopathic effect; cited from earlier work
# in vitro [1] = details: African green monkey, CC50 (half-maximal cytotoxic concentration)
# Vero E6 cells = details: African green monkey
# [2] = tested on: autophagic flux in Vero E6 cells; experiment: Western blot of autophagy markers LC3-II and p62 with or without Baf A1; format: cell-based, African green monkey; details: uninfected Vero E6 cells, 24 h, with or without Baf A1 for the last 4 h, normalized to GAPDH
# in vitro [3] = details: human
# [4] = tested on: SARS-CoV-2-infected Vero E6 cells; experiment: Immunofluorescence assays; format: cell-based, African green monkey; details: IHUMI-6, MOI 0.1, 48 h post-infection, versus infected untreated, p = 0.03
# cathepsin B (CTSB) = tested on: cathepsin B (CTSB); set-up: method as in ref 16, 33 = [16]; details: cited from earlier work
# [5] = tested on: SARS-CoV-2 hCoV-19_IPL_France strain; format: cell-based; details: wild-type Vero E6 cells, MOI 0.025, 16 h, increasing doses
# [6] = tested on: SARS-CoV-2 hCoV-19_IPL_France strain; format: cell-based; details: Vero E6-TMPRSS2 cells, MOI 0.025, 16 h, increasing doses
# [7] = tested on: SARS-CoV-2 BetaCoV/France/IDF0372/2020 strain; set-up: species or system K18-hACE2 mouse; details: mouse, in vivo
# [8] = tested on: SARS-CoV-2 IHUMI-6 strain; format: cell-based; details: Vero E6 cells, according to the strain used
# [9] = tested on: SARS-CoV-2 IHUMI-6 strain; experiment: microbe, parasite or virus in culture; format: cell-based
# [10] = tested on: SARS-CoV-2-infected Vero E6 cells; format: cell-based; details: 4 µM, 2 h, then IHUMI-6 infection 24 h
# cathepsin L (CTSL) = tested on: cathepsin L (CTSL); set-up: method as in ref 16, 33 = [16]; details: cited from earlier work
structure (smiles),measurement,setting,value
Cc1ccc(NCCN(C)CCNc2ccnc3cc(Cl)ccc23)c2c(=O)c3ccccc3sc12 [ROC-325],EC50,SARS-CoV-2,3.28 µM
"CCN(CC)CCCC(C)Nc1ccnc2cc(Cl)ccc12 (centres unmarked) [Chloroquine, chloroquine]",CC50,in vitro [1],73.2 µM
same,CC50,Vero E6 cells,73.2 µM
"CC(C)(C)NC1CCN(c2cc(NCc3ccc(Cl)cc3)nc3ccccc23)CC1 [GNS561, Ezurpimtrostat]",Normalized LC3-II protein expression,[2],increased in a dose-dependent manner
same,p62 protein level,[2],The same observation
same,CC50 at 48 h,in vitro [3],4.6 µM
same,LC3B signal (LC3B clusters),[4],enhanced
same,enzymatic activity of cathepsin B,cathepsin B (CTSB),significantly impair
same,SARS-CoV-2 N protein level compared to untreated,[5],did not alter the N protein level
same,SARS-CoV-2 N protein level compared to untreated,[6],did not alter the N protein level
same,lung SARS-CoV-2 viral load,[7],decline in SARS-CoV-2 virions in the lungs; also recorded: downward trend; also recorded: moderate
same,"lung tissue ultrastructure (autophagic vacuoles, multilamellar bodies)",[7],autophagic vacuole accumulation with increased electron density
same,inhibitory concentration relative to remdesivir,[8],50.5–200 times
same,selectivity index,[9],moderate
same,EC50,"[9]; Severe acute respiratory syndrome coronavirus 2, in Homo sapiens, human lung Calu-3 cells, IHUMI-6 strain, 48 h, read-out: EC50 antiviral activity",1.1 µM
same,volume (area) of autophagic vacuoles in the cytoplasm,[10],increase in the volume of autophagic vacuoles
same,enzymatic activity of cathepsin L,cathepsin L (CTSL),significantly impair
